These are literature values, as cited in patent US20120207744A1, “REPROGRAMMING COMPOSITIONS AND METHODS OF USING THE SAME” (priority 2009, published 2012).

Counter-ions that a name gives are not always drawn.

Data set [1] relates to mouse embryonic fibroblasts. Particulars: small-molecule combination BIX-01294 and BayK8644.
In a further data set the test system is human ESCs. Particulars: both appear equally effective in facilitating clonal growth.
In another data set the test system is ROCK1/ROCK2. The conditions noted are these: inhibits by competing with ATP; Ishizaki et al. 2000.
The next data set has as its system ES-cell. Particulars: repression of MEK/ERK, in culture.
In a further data set the test system is Oct-3/4-GFP. Particulars: Oct-3/4-GFP as a reporter.
Data set [2] concerns primary human fibroblasts. The conditions noted are these: Oct-3/4 and Sox-2, without c-Myc or Klf-4.
The next data set deals with ESCs. Particulars: cyclic activation of Wnt/β-catenin signaling in ESCs.
The test system of the next data set is Klf-4 promoter. Particulars: transient transfection, 2622-bp mouse Klf-4 promoter.

As to `COc1cc2nc(N3CCCN(C)CC3)nc(NC3CCN(Cc4ccccc4)CC3)c2cc1OC` [BIX-01294], the “reprogramming of Oct-3/4/Klf-4 transduced cells” value in [1] is “enables reprogramming”. With `Cc1cncc2cccc(S(=O)(=O)N3CCCNC[C@@H]3C)c12.Cl.Cl` [H-1152, (S)-(+)-2-methyl-1-[(4-methyl-5-isoquinolinyl)sulfonyl]homopiperazine dihydrochloride], in the data set with human ESCs, the “working concentration for facilitating clonal growth, relative to HA-100” value was “ten times lower working concentrations than HA-100”. As to `COC(=O)C1=C(C)NC(C)=C([N+](=O)[O-])C1c1ccccc1C(F)(F)F` (stereo not drawn) [BayK8644], in data set [1], the “reprogramming of Oct-3/4/Klf-4 transduced cells” value is “enables reprogramming”. One may read the IC50 as the concentration needed to halve the response being measured. For the molecule `C[C@@H](N)[C@H]1CC[C@H](C(=O)Nc2ccncc2)CC1` [Y-27632, (+)-(R)-trans-4-(1-aminoethyl)-N-(4-pyridyl)cyclohexanecarboxamide dihydrochloride], the IC50 with ROCK1/ROCK2 was 800 nM. With `COc1cccc(-c2cc(=O)c3ccccc3o2)c1N` [PD098059], in the data set on ES-cell, the “effect on differentiation and ES-cell self-renewal” value is “inhibits differentiation and maintains ES-cell self-renewal in culture”. As to `CCCC(CCC)C(=O)O` [valproic acid], in the data set with Oct-3/4-GFP, the “improvement of reprogramming efficiency” value is listed as “more than 100 fold”. In data set [2], the “reprogramming with only two factors” value is on record as “enables reprogramming of primary human fibroblasts”. Consider enterostatin, for which the “effect on KLF4 gene expression” value in the data set on GT1-7 cells (GT1-7 cells treated with the peptide) was “inhibited KLF4 gene expression”. As to `N#CC(=C(/N)Sc1ccccc1N)/C(C#N)=C(\N)Sc1ccccc1N` [U0126], the “effect on enterostatin-induced inhibition of KLF4 gene expression” value in the data set on GT1-7 cells (GT1-7 cells, ERK inhibitor) was “blocked”.

As for `O=C1Nc2cc(Br)ccc2/C1=C1/Nc2ccccc2/C1=N\O` [6-bromoindirubin-3′-oxime], the “ability of ESCs to reprogram somatic cells after fusion” value in the data set with ESCs is reported as “strikingly enhances”.

B1: IFN-gamma: IFN-gamma, cytokine inducing Klf-4 expression via phosphorylated STAT1 (protein, UniProt P01579 24-161, looked up)
Interferon gamma: QDPYVKEAENLKKYFNAGHSDVADNGTLFLGILKNWKEESDRKIMQSQIVSFYFKLFKNFKDDQSIQKSVETIKEDMNVKFFNSNKKKRDDFEKLTNYSVTDLNVQRKAIHELIQVMAELSPAAKTGKRKRSQMLFRG
As for B1, in the data set with Klf-4 promoter, the “increase of Klf-4 promoter activity” value is 3.5 fold.

B2: Wnt3a: Wnt protein activating Wnt/β-catenin signaling (protein, UniProt P56704 19-352, looked up)
Protein Wnt-3a: SYPIWWSLAVGPQYSSLGSQPILCASIPGLVPKQLRFCRNYVEIMPSVAEGIKIGIQECQHQFRGRRWNCTTVHDSLAIFGPVLDKATRESAFVHAIASAGVAFAVTRSCAEGTAAICGCSSRHQGSPGKGWKWGGCSEDIEFGGMVSREFADARENRPDARSAMNRHNNEAGRQAIASHMHLKCKCHGLSGSCEVKTCWWSQPDFRAIGDFLKDKYDSASEMVVEKHRESRGWVETLRPRYTYFKVPTERDLVYYEASPNFCEPNPETGSFGTRDRTCNVSSHGIDGCDLLCCGRGHNARAERRREKCRCVFHWCCYVSCQECTRVYDVHTCK
As for B2, the “ability of ESCs to reprogram somatic cells after fusion” value in the data set with ESCs is on record as “strikingly enhances”.
